# Test results from patent publication US20070105939A1, “Mesylate salt of 5-(2-dimethylaminoethoxy)-1H-indole-2-carboxylic acid [3-(4-hydroxycarbamoylphenyl)prop-2-ynyl]amide” (Pharmacyclics, Inc., priority 2005, published 2007).
# Where two headings read alike, the source gives them in different places.
# What was measured:
# [1] = in vivo
# [2] = test system: histone deacetylase enzyme H1; conditions: disclosed in PCT publication WO 2004/019174; cited from earlier work
# [3] = Solubility (background statement)
# [4] = Oral bioavailability (background statement); conditions: have to be administered parenterally for therapeutic effect
Compound,oral bioavailability [1],inhibition of histone deacetylase enzyme H1 [2],solubility [3],oral bioavailability [4]
CN(C)CCOc1ccc2[nH]c(C(=O)NCC#Cc3ccc(C(=O)NO)cc3)cc2c1 [5-(2-dimethylaminoethoxy)-1H-indole-2-carboxylic acid [3-(4-hydroxy-carbamoylphenyl)prop-2-ynyl]amide],poor,inhibitors,–,–
"CN(C)CCOc1ccc2[nH]c(C(=O)NCC#Cc3ccc(C(=O)NO)cc3)cc2c1.Cl [hydrochloride salt, 5-(2-dimethylaminoethoxy)-1H-indole-2-carboxylic acid [3-(4-hydroxy-carbamoylphenyl)prop-2-ynyl]amide hydrochloride]",–,inhibitors,poor,poor
